# Literature values in PMC2409936, “Phase I and pharmacokinetic study of XR11576, an oral topoisomerase I and II inhibitor, administered on days 1–5 of a 3-weekly cycle in patients with advanced solid tumours” (British Journal of Cancer, 2004).
# System: patients
# Conditions: oral administration; ref Soepenberg et al, 2002; Natelson et al, 1996; Verschraegen et al, 1998; Creemers et al, 1997; Gerrits et al; Mani et al; De Jonge et al, 1999; cited from earlier work
row,SMILES,"diarrhoea, share of administered cycles"
1,CC[C@@]1(O)C(=O)OCc2c1cc1n(c2=O)Cc2cc3c(N)cccc3nc2-1 [9-AC],24–54%
2,CC[C@@]1(O)C(=O)OCc2c1cc1n(c2=O)Cc2cc3c([N+](=O)[O-])cccc3nc2-1 [9-nitrocamptothecin],24–54%
3,CC[C@@]1(O)C(=O)OCc2c1cc1n(c2=O)Cc2cc3ccccc3nc2-1 [20-S-camptothecin],24–54%
4,CCc1c2c(nc3ccc(OC(=O)N4CCC(N5CCCCC5)CC4)cc13)-c1cc3c(c(=O)n1C2)COC(=O)[C@]3(O)CC [irinotecan],24–54%
5,CC[C@@]1(O)C(=O)OCc2c1cc1n(c2=O)Cc2cc3c(CN(C)C)c(O)ccc3nc2-1 [topotecan],24–54%

# Same assay, conditions: prolonged oral administration (21 days), not controlled with loperamide; ref Creemers et al, 1997; cited from earlier work
row,SMILES,severe diarrhoea [%]
1,CC[C@@]1(O)C(=O)OCc2c1cc1n(c2=O)Cc2cc3c(CN(C)C)c(O)ccc3nc2-1 [topotecan],22
